These results are taken from ChEMBL document CHEMBL5331045, “Recent advances in β-lactamase inhibitor chemotypes and inhibition modes” (Eur J Med Chem, 2022).

Experiment [1] in a line: Inhibition of VIM2 (unknown origin) using fluorescent cephalosporin FC5 as substrate incubated for 15 mins followed by substrate addition measured by fluorescence based analysis. Details: species or system Homo sapiens; call rule not given here.
Experiment [2] in a line: Inhibition of IMP28 (unknown origin) using fluorescent cephalosporin FC5 as substrate incubated for 15 mins followed by substrate addition measured by fluorescence based analysis. Set-up: species or system Homo sapiens.
The nature of experiment [3]: Inhibition of Aeromonas hydrophila VIM2 preincubated for 30 mins followed by nitrocefin solution measured by UV based microtitre plate analysis.
Experiment [4] can be described thus: Inhibition of Aeromonas hydrophila VIM4 preincubated for 30 mins followed by nitrocefin solution measured by UV based microtitre plate analysis.
A short description of experiment [5]: Inhibition of Aeromonas hydrophila NDM1 preincubated for 30 mins followed by nitrocefin solution measured by UV based microtitre plate analysis.
A short description of experiment [6]: Binding affinity to VIM2 (unknown origin) assessed as inhibition constant. Details: species or system Bacteria.
Experiment [7] can be described thus: Binding affinity to NDM1 (unknown origin) assessed as inhibition constant. Details: species or system Bacteria.
The nature of experiment [8]: Binding affinity to IMP1 (unknown origin) assessed as inhibition constant. Set-up: species or system Bacteria.
Experiment [9] can be described thus: Binding affinity to Sfh1 (unknown origin) assessed as inhibition constant. Details: species or system Homo sapiens.
A short description of experiment [10]: Binding affinity to L1 (unknown origin) assessed as inhibition constant. Set-up: species or system Homo sapiens.
Experiment [11] can be described thus: Binding affinity to VIM2 (unknown origin) expressed in Escherichia coli BL21 (DE3) assessed as inhibition constant using IPM as substrate incubated for 5 mins. Details: species or system Homo sapiens.
A short description of experiment [12]: Binding affinity to IMP1 (unknown origin) expressed in Escherichia coli BL21 (DE3) assessed as inhibition constant using IPM as substrate incubated for 5 mins. Set-up: species or system Homo sapiens.
Experiment [13] is described as follows: Inhibition of IMP1 (unknown origin). Details: species or system Bacteria.
Experiment [14] addresses T1, Beta-lactamase VIM-1 (Bacteria, UniProt Q8GDC1). Briefly: Inhibition of VIM1 (unknown origin).
Experiment [15] can be described thus: Binding affinity to VIM4 (unknown origin) assessed as inhibition constant. Details: species or system Homo sapiens.
Experiment [16] concerns the target T1, Beta-lactamase VIM-1. Briefly: Binding affinity to VIM1 (unknown origin) assessed as inhibition constant.
The nature of experiment [17]: Inhibition of VIM2 (unknown origin). Set-up: species or system Bacteria.
Experiment [18] concerns the target T2, Metallo-beta-lactamase type 2 (Bacteria, UniProt C7C422). Briefly: Inhibition of NDM1 (unknown origin). As to conditions: read-out: pIC50 (converted).
A short description of experiment [19]: Inhibition of VIM2 (unknown origin) by spectroscopic analysis. Set-up: species or system Homo sapiens.
Experiment [20] in a line: Inhibition of VIM2 (unknown origin) using nitrocefin as substrate incubated for 30 mins. Set-up: species or system Homo sapiens.
Experiment [21] can be described thus: Inhibition of IMP1 (unknown origin) using nitrocefin as substrate incubated for 30 mins. Set-up: species or system Homo sapiens.
Experiment [22] has as its target T2, Metallo-beta-lactamase type 2. Briefly: Inhibition of NDM1 (unknown origin) by spectroscopic analysis.
A short description of experiment [23]: Inhibition of IMP1 (unknown origin) by spectroscopic analysis. Set-up: species or system Homo sapiens.
Experiment [24] is described as follows: Inhibition of L1 (unknown origin) by spectroscopic analysis. Set-up: species or system Homo sapiens.
A short description of experiment [25]: Inhibition of Escherichia coli beta-lactamase CMY-2.
The target of the next experiment is Beta-lactamase TEM-1 (Escherichia coli, UniProt Q4GY26). The experiment in a line: Inhibition of Escherichia coli beta-lactamase TEM-1.
Sequence of Beta-lactamase TEM-1 (Q4GY26 whole entry): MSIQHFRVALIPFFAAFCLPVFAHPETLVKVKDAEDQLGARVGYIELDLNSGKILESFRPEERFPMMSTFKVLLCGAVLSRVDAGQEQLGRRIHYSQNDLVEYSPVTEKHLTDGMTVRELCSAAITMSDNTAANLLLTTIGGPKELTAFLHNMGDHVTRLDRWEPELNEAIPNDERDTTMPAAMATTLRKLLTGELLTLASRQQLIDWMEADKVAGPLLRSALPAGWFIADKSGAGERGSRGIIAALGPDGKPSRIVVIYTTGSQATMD
The next experiment addresses Beta-lactamase CTX-M-14 (Escherichia coli, UniProt Q9L5C7). Briefly: Inhibition of Escherichia coli beta-lactamase CTX-M-14.
A short description of experiment [26]: Inhibition of Escherichia coli beta-lactamase CTX-M-15.
Experiment [27] can be described thus: Inhibition of Escherichia coli beta-lactamase CTX-M-44.
Another experiment concerns the target Beta-lactamase (Enterobacter cloacae, UniProt P05364). The experiment in a line: Inhibition of Enterobacter cloacae AmpC.
The target of a further experiment is Beta-lactamase OXA-1 (Escherichia coli, UniProt P13661). The experiment in a line: Inhibition of Escherichia coli beta-lactamase OXA-1.
Sequence of Beta-lactamase OXA-1 (P13661 whole entry): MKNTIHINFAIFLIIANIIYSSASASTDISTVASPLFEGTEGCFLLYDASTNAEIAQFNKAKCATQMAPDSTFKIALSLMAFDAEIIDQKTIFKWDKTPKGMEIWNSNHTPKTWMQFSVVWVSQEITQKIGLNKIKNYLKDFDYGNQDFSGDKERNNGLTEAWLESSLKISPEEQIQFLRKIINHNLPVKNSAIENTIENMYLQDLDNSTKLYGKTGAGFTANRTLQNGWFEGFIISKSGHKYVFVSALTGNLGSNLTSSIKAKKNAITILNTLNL
Experiment [28] can be described thus: Inhibition of Pseudomonas aeruginosa beta-lactamase OXA-2.
Experiment [29] can be described thus: Inhibition of CphA (unknown origin). Set-up: species or system Homo sapiens.

T2 sequence (C7C422 whole entry): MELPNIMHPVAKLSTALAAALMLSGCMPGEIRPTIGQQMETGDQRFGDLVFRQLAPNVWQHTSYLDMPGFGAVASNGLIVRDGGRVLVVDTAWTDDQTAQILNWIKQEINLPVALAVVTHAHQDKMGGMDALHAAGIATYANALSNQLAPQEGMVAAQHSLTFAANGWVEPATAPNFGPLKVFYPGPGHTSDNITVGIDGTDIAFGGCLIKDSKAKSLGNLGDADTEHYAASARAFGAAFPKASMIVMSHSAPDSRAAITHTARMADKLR
Sequence of Beta-lactamase CTX-M-14 (Q9L5C7 whole entry): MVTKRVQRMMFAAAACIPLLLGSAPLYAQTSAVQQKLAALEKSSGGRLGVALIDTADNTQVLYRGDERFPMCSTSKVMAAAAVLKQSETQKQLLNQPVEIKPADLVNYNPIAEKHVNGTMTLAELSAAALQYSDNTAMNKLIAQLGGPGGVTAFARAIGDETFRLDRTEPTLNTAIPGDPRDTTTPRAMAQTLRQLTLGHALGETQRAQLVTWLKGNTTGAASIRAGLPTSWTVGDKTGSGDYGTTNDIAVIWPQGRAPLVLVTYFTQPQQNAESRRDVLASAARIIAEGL
Sequence of Beta-lactamase (P05364 whole entry): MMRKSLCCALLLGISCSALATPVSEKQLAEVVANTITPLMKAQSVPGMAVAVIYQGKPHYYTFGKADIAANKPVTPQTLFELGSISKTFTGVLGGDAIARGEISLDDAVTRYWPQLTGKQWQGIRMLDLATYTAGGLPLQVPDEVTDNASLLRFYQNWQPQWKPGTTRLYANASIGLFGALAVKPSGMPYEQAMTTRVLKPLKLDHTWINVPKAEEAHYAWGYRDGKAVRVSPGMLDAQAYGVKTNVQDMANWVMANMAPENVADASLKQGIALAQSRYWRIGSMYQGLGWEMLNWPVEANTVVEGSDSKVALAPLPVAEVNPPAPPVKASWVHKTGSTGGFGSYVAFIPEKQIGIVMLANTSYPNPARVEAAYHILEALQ

As for `O=C(O)CN(CC(=O)O)CP(=O)(O)O`, the figures for the IC50 in experiment [1] and in [2] were 680 nM and 39000 nM, respectively.

Take `Nn1c(-c2cc3ccccc3[nH]2)n[nH]c1=S`: the results for the IC50 in experiment [3], in experiment [4] and in experiment [5] were 14000 nM, 19000 nM and 34000 nM, respectively.

As to `COC(=O)[C@]1(CS)N[C@H](C(=O)O)CS1`, the Ki stood at 380 nM in experiment [6]; 5200 nM in experiment [7] (read-out: Ki); 1000 nM in experiment [8] (read-out: Ki); 160 nM in experiment [9]; 10000 nM in [10].

With `Cc1oc(C)c(S(N)(=O)=O)c1C(=O)O`, the inhibitory constant (Ki) came to 2810 nM in [11] and 220 nM in experiment [12].

Take `Nc1nc2c(-c3ccc(S(=O)(=O)NC[C@H]4CCNC4)c(S(N)(=O)=O)c3-c3nnn[nH]3)cccc2s1`: the IC50 in experiment [13] amounted to 0.16 nM; on Beta-lactamase VIM-1 [14] (read-out: IC50) it was 0.125 nM.

As for `COC(=O)[C@]1(CS)N[C@H](C(=O)O)C(C)(C)S1`, the Ki was determined as 750 nM in [6]; 440 nM in experiment [7] (read-out: Ki); 460 nM in experiment [8] (read-out: Ki); 1300 nM in experiment [9]; 20000 nM in [10].

`O=C(O)c1ccccc1CNn1c(-c2cccc(-c3ccccc3)c2)n[nH]c1=S`: the Ki in [6] was determined as 240 nM; in experiment [7] (read-out: Ki), 8200 nM; in [8] (read-out: Ki), 76000 nM; in [15], 570 nM; at Beta-lactamase VIM-1 [16], 3600 nM.

Take `Nc1nc2cccc(-c3ccc(S(N)(=O)=O)c(S(N)(=O)=O)c3-c3nn[nH]n3)c2[nH]1`: the IC50 in experiment [13] was determined as 0.58 nM; at Beta-lactamase VIM-1 [14] (read-out: IC50), 0.264 nM.

With `O=C(O)CCCn1c(-c2cccc(-c3ccccc3)c2)n[nH]c1=S`, the Ki in [6] was 350 nM; in experiment [7] (read-out: Ki), 99800 nM; in experiment [8], “Not Active”; in [15] it was 270 nM; on Beta-lactamase VIM-1 [16] it was 5500 nM.

As for `CCc1c(C(=O)O)c(S(N)(=O)=O)c(CC)n1C`, the figures for the Ki in experiment [11] and in experiment [12] were 20 nM and 260 nM, respectively.

Regarding `NS(=O)(=O)n1ccc(-c2ccc(F)cc2)c1C(=O)O`, the pIC50 in [17] amounted to 7.7; in experiment [13], 9.2. Besides, the IC50 on Beta-lactamase VIM-1 [14] (read-out: pIC50 (converted)) is 126 nM.

Consider `CC(C)c1cccc2c1N=C(C(=O)O)C2c1ccc(CS(C)(=O)=O)c(Cl)c1` (stereo unspecified), for which the IC50 in experiment [18] is 1.26 nM; at Beta-lactamase VIM-1 [14] (read-out: pIC50 (converted)), 10 nM. The results for the pIC50 in experiment [13] and in experiment [19] were 8.5 and 8.1, respectively.

For the compound `NS(=O)(=O)n1ccc(-c2ccc(C3CCNCC3)cc2)c1C(=O)O`, the IC50 in experiment [20] stood at 67300 nM; in [21], 40 nM.

Consider `O=C(O)c1ccccc1CCn1c(-c2cccc(OCCN3CCOCC3)c2)n[nH]c1=S`, for which the Ki in [6] was 340 nM; in experiment [7] it was “Not Active”; in [8], “Not Active”; in [15] it was 1270 nM; at Beta-lactamase VIM-1 [16], 4690 nM.

As for `O=C(O)c1cccc(C(O)P(=O)(O)O)n1` (stereo unspecified), the IC50 in experiment [19] came out at 1900 nM; in experiment [22] it was 322 nM; in experiment [23] it was 7200 nM; in [24], 2050 nM.

For `NC(=O)[C@@H]1CC[C@@H]2CN1C(=O)N2OS(=O)(=O)O` [AVIBACTAM], the IC50 in experiment [25] came to 44 nM; against Beta-lactamase TEM-1, 7 nM; against Beta-lactamase CTX-M-14, 3 nM; in [26], 1 nM; in experiment [27], 4 nM; at Beta-lactamase it was 923 nM. For the same compound, the IC50 against Beta-lactamase OXA-1 was 130 nM; in [28], 485 nM.

Consider `C[C@H](CS)C(=O)N1CCC[C@@H]1C(=O)O` [D-CAPTOPRIL], for which the IC50 in [29] amounted to 72000 nM.

For `O=c1c2ccccc2[se]n1-c1ccccc1` [EBSELEN], the Ki in [7] (read-out: Ki) was 380 nM.

By Ki is commonly meant the equilibrium dissociation constant of an inhibitor or competing ligand from its target. The term pIC50 denotes the negative decadic logarithm of the IC50, by convention in mol/L. A low value points to a high IC50.
